On the set-up of series [1]: method as in PMID 20425757. Conditions: cited from earlier work.
Details of series [2]: method as in PMID 11368559. The settings on record: mouse urine; cited from earlier work.
The nature of series [3]: Human study: urinary excretion of α-thujone and hydroxythujones after consumption of a sage infusion (SIDA, SPME-GC-MS and LC-MS/MS). The settings on record: for detection in urine of the volunteers: after consumption of 575.0 µg α-thujone, hydroxythujones after liberation from glucuronides/sulfates; for minimum degree of glucuronidation/sulfation: human urine, calculated from two samples with free hydroxythujones above LOQ; for Total excretion in human urine: 575 µg α-thujone as sage infusion, urine over 24 h; for time after which no additional excretion was observed: after ingestion of sage infusion, all but test person 2 for 7-OH; for maximum concentration in urine: volunteer with the highest dose of 14.3 µg/kg bw, after sage infusion. Type of series: in vivo, humans. The protocol:
The protocol of the study was approved by the Ethics Committee of the Faculty of Medicine of the Technische Universität München (1996/07). Written informed consent was obtained from participants before inclusion into the study. Seven healthy, non-smoking volunteers, six Caucasian, participated in the study (3 men and 4 women, mean (±standard deviation [SD]) age 29.7 (±9.21) years, and mean (±SD) body mass index 23.1 (±5.08) kg/m^2). For 24 h prior to the study, the volunteers avoided herbs and spices containing α-thujone for a wash out. A blank urine sample was collected as a control from each volunteer before consumption of the sage infusion. On an empty stomach, the volunteers drank the tea (575 µg α-thujone) within 10 min, and urine was collected at 1, 1.5, 2.5, 3.5 h, and in the time frames of 4.5–6, 6–8, 8–14, 14–24 h after consumption. A defined meal (cheese sandwich) was eaten after 2 h. The samples were stored at 4 °C until preparation for analysis.
The cooled samples were adjusted with HCl to pH 5 and divided into 2 mL aliquots. A solution containing the labeled hydroxythujones (220–430 ng) and β-glucuronidase (5000 units/mL sample; 1 unit liberates […] phenolphthalein from its glucuronide per hour at pH 5.0 at 37 °C) was added, and the mixture stirred at 37 °C for 15 h. Afterwards, the samples were centrifuged (16000 rpm, 4 °C, 15 min) and the supernatant was subjected to solid phase extraction (SPE).
The SPE tubes (ENVI-18, 100 mg, Supelco) were equilibrated with 2 × 1 mL methanol and 2 × 1 mL water. Thereafter, the clear supernatant was loaded on the columns and was slowly passed through without suction. The protein residue was reextracted with water/methanol (95:5, 1 mL), and also loaded on the SPE tubes. The tubes were washed with water/methanol (95:5, 2 × 1 mL) by suction, and then dried carefully. Analytes were slowly eluted with water/acetonitrile (50:50, 500 µL). The extracts were analyzed by LC-MS/MS.
Measurements on the LC-MS/MS were performed using a Shimadzu LC-30A Prominence system (Shimadzu, Kyoto, Japan) interfaced to an LCMS-8050 Triple Quadrupol mass spectrometer (Shimadzu, Kyoto, Japan). A total of 40 µL was injected onto a YMC Pro Pack C4 at 30 °C oven temperature and flow of 0.5 mL/min with water (solvent A) and ACN (solvent B). The gradient was started and held at 5% B for 2 min, raised linearly from 5% B to 30% B during the next 1 min, then raised linearly to 33% within the next 7 min, and to 100% B within the next 1 min. Thereafter, the mobile phase returned to 5% B within 2 min, and the system was equilibrated for 18 min before the next run. The atmospheric pressure chemical ionization (APCI) source was operated in the positive mode under the following conditions: nebulizing gas flow 3 L/min; interface temperature 350 °C; desolvation line temperature 200 °C; drying gas flow 5 L/min. For MS/MS of the hydroxythujones, the mass transitions (m/z precursor ion/ m/z product ion) 151/81 (collision energy = −17 V) and 151/123 (−14 V) for 2-OH, 151/109 (−13 V) and 151/91 (−23 V) for 4-OH, 151/105 (−18 V) and 151/81 (−17 V) for 7-OH, 157/129 (−14 V) and 157/87 (−15 V) for d6-2-OH, […] (−16 V) and 157/91 (−23 V) for d6-4-OH, and 157/129 (−14 V) and 157/99 (−16 V) for d6-7-OH were used.
To determine the hydroxythujone content in urine, calibration functions for 2-OH, 4-OH, and 7-OH were generated with the respective labeled compounds. Calibrators with unlabeled and labeled compounds were prepared in an aqueous solution, in seven different ratios for the unlabeled compounds ranging from 3.1–601.9 µg/mL, while maintaining the labelled compounds constant at concentrations of 450 µg/mL each. The samples were measured by LC-MS/MS. From the relation of area ratios to molar ratios, calibration curves were constructed. […]

For series [4], the system named is gamma-aminobutyric acid A (GABAA) receptor. Also noted: method as in PMID 10725394. Conditions: leads to convulsions and excitations at higher concentrations in animal studies; cited from earlier work.
The conditions of series [5]: recently deduced; cited from earlier work.
Where [6] appears, read: test person 1, dose/bw 14.3 µg/kg, after glucuronide/sulfate deconjugation.
Setting [7] is: test person 2, dose/bw 11.4 µg/kg, after glucuronide/sulfate deconjugation.
Setting [8] is: test person 3, dose/bw 8.2 µg/kg, after glucuronide/sulfate deconjugation.
Where [9] appears, read: test person 4, dose/bw 6.7 µg/kg, after glucuronide/sulfate deconjugation.
The mark [10] stands for this setting: test person 5, dose/bw 8.9 µg/kg, after glucuronide/sulfate deconjugation.
The mark [11] stands for this setting: test person 6, dose/bw 4.6 µg/kg, after glucuronide/sulfate deconjugation.
The mark [12] stands for this setting: test person 7, dose/bw 7.6 µg/kg, after glucuronide/sulfate deconjugation.

The structures appear in SMILES notation.

As for `CC12CCC(CC1)C(C)(C)O2` [1,8-cineole], the “dose recovered as the sum of 2-, 9-, 3- and 7-hydroxy-1,8-cineole” value in series [1] is given as 52.5%.

In the case of `CC(C)[C@@]12C[C@@H]1[C@@H](C)C(=O)[C@@H]2O` [2-OH, 2-hydroxythujone], in series [2], the degree of glucuronidation is 85%. For the same compound, the results for the “detection in urine of the volunteers” value in series [3] and in series [3] (listed as 2-Hydroxythujone) were “not being detectable” and “not present”, respectively.

On to `CC(C)[C@]12CC(=O)[C@@](C)(O)[C@H]1C2` [4-OH, 4-hydroxythujone], for which the degree of glucuronidation in series [2] is listed as 61%. For the same compound, the “detection in urine of the volunteers” value in series [3] is on record as “detectable”. Moreover, the “minimum degree of glucuronidation/sulfation” value in series [3] is on record as ≥ 66%. The “Total excretion in human urine” value in series [3] (setting [6]) was 13.9 µg; in series [3] (setting [7]), 17.9 µg; in series [3] (setting [8]), 14.6 µg; in series [3] (setting [9]), 11.8 µg; in series [3] (setting [10]), 16.5 µg; in series [3] (setting [11]) it was 17.0 µg. The “Total excretion in human urine” value in series [3] (setting [12]) amounted to 26.3 µg. For the same compound, the “time after which no additional excretion was observed” value in series [3] (urine) is 7 to 8 h.

For `C[C@H]1C(=O)C[C@]2(C(C)(C)O)C[C@H]12` [7-OH, 7-hydroxythujone], the degree of glucuronidation in series [2] is 2%. In addition, the “detection in urine of the volunteers” value in series [3] is “detectable”. Further, the “minimum degree of glucuronidation/sulfation” value in series [3] was ≥ 55%. In addition, the “Total excretion in human urine” value in series [3] (setting [6]) stood at 15.6 µg; in series [3] (setting [7]), 20.9 µg; in series [3] (setting [8]), 8.6 µg; in series [3] (setting [9]), 4.0 µg; in series [3] (setting [10]) it was 7.8 µg; in series [3] (setting [11]), 6.9 µg. Besides, the “Total excretion in human urine” value in series [3] (setting [12]) is on record as 5.9 µg. In addition, the “time after which no additional excretion was observed” value in series [3] (urine) fell in the range of 7 to 8 h. Moreover, in series [3] (urine, test person 2), the slower excretion until was 16 h.

For `CC(C)[C@]12CC(=O)[C@H](C)[C@H]1C2` [thujone], the “effect on GABAA receptor” value in series [4] is “inhibits”.

Regarding `CC(C)[C@]12CC(=O)[C@H](C)[C@H]1C2` [α-thujone], the figures for the “detection in urine of the volunteers” value in series [3] and in series [3] (listed as α-Thujone) were “detectable” and “detectable in a low amount”, respectively. Also, the “time after which urine concentration fell under the LODs” value in series [3] (most volunteers) stood at 4.5 h. In addition, the “Total excretion in human urine” value in series [3] (test person 1, dose/bw 14.3 µg/kg) amounted to 0.0451 µg; in series [3] (test person 2, dose/bw 11.4 µg/kg), 0.008 µg; in series [3] (test person 3, dose/bw 8.2 µg/kg) it was 0.0361 µg; in series [3] (test person 4, dose/bw 6.7 µg/kg), 0.0163 µg; in series [3] (test person 5, dose/bw 8.9 µg/kg), 0.0107 µg; in series [3] (test person 6, dose/bw 4.6 µg/kg), 0.025 µg. Moreover, the “Total excretion in human urine” value in series [3] (test person 7, dose/bw 7.6 µg/kg) amounted to 0.0351 µg. Besides, in series [3] (urine, almost all volunteers), the “time within which excreted” value is reported as ≤ 8 h. The figures for the “maximum concentration in urine” value in series [3] and in series [3] (listed as α-Thujone) were 94.3 ng/L and 94 ng/L, respectively. For the same compound, the acceptable daily intake in series [5] was 110 µg/kg bw/d.

The record behind these values is paper PMC6315428, “Quantification of α-Thujone and Its Metabolites in Human Urine after Consumption of a Sage Infusion Using Stable Isotope Dilution Assays” (Toxins, 2018).
